{"source": "patent US8030452B2", "about": "“IFBM'S to promote the specific attachment of target analytes to the surface of orthopedic implants” (priority 2004, dated 2011)", "key": {"[1]": {"biological_target": "BMP on collagen sponge (Homo sapiens, UniProt P12643)", "method": "To each well, a 2/16″ diameter collagen sponge (Medtronic) was added. The collagen and peptide solutions were allowed to incubate for 1.5 hours at room temperature. Sponges were then rinsed three times with 200 μL Medtronic buffer at 2200 rpm for 1 minute. To each sponge, a primary antibody directed at BMP (diluted 1:1000; R&D Systems #MAB3552) was added for 1 hour at room temperature. A secondary antibody conjugated to alkaline phosphatase (1:5000) was then incubated in the system for 0.5 hour at room temperature."}, "[2]": {"settings": "for binding to titanium: FIG. 3; for EC50: read-out: [peptide] ½ maximal signal (relative affinity for titanium), biotin-conjugated peptide, titanium beads, 1 hour room temperature, absorbance 405 nm", "method": "AFF6007 and AFF6010 were prepared at 200 μM.\nBeads were washed two times with PBS/Tween™ 20."}, "[3]": {"biological_target": "T1, BMP-2 (Homo sapiens, UniProt P12643)", "T1 construct": "purchased Medtronic", "T1 sequence (P12643 283-396)": "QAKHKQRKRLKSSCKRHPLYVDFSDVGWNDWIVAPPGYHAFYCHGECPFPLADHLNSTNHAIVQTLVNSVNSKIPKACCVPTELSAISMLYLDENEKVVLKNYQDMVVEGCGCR", "test": "Binding of biotinylated peptides to BMP-2 (FIG. 12)", "settings": "biotinylated peptide", "method": "Briefly, peptide stock solutions were made by dissolving the powder in 100% DMSO to make a 10 mM solution of peptide, water was then added for a final stock concentration of peptide of 1 mM in 10% DMSO. Serial dilutions of the peptide were made in PBS-T. A dilution series of BMP-2 with concentrations ranging from 100 nM to 0.1 nM was immobilized onto the wells of microtiter plates (Immulon-4® HBX from Dynex Technologies, Chantilly, Va.) and blocked with 1% BSA. […] The […] were washed 3 times with PBS-T. Streptavidin-alkaline phosphatase (SA-AP) from USB (United States Biochemical, catalog #11687) was added (1:1000 in PBS-T) and incubated 1 hour at room temperature with shaking. The plates were washed 3 times with PBS-T and the amount of peptide:SA-AP was determined by adding PNPP (Sigma-Aldrich, Inc., SigmaFast tablets, catalog #N1891) and allowing the color to develop for about 10 minutes.\nTo confirm these BMP binding results, the peptides were also tested in an alternate assay format in which the peptide and BMP2 were allowed to bind in solution and then assayed. Briefly, the peptides were synthesized with a biotin group attached to the ε amino group of a lysine residue at the C-terminus of the peptide. […] The plates were washed with TBS-Tween™ 20 and the antibody binding was detected using the chromogenic AP substrate pNPP. […]"}, "[4]": {"biological_target": "T2, BMP-4 (Homo sapiens, UniProt P12644)", "T2 sequence (P12644 293-408)": "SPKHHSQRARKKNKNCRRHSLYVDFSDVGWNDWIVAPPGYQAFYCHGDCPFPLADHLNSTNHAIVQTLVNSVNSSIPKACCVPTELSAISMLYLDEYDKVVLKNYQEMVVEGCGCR", "test": "Binding of biotinylated peptides to BMP-4 (FIG. 12)", "settings": "biotinylated peptide"}, "[5]": {"biological_target": "T3, BMP-7 (Homo sapiens, UniProt P18075)", "T3 sequence (P18075 293-431)": "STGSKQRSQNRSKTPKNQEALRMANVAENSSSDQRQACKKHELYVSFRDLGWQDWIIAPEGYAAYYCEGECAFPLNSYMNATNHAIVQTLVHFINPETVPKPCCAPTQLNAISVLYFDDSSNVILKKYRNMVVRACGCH", "test": "Binding of biotinylated peptides to BMP-7 (FIG. 12)", "settings": "biotinylated peptide"}}}
{"substance": "DVNSIWMSRVIEWTYDSGSSGKSSSVDLYFPLKGDVVSR-NH2 [AFF7010]", "values": [{"measurement": "BMP retained on collagen sponge", "setting": "[1]", "result": "retains more BMP on the sponge than the sponges without IFBM"}, {"measurement": "amount of BMP-2 retained on collagen with increasing IFBM concentration", "setting": "[1]", "result": "leads to a larger amount of BMP-2 that is retained on the collagen"}]}
{"substance": "SSSVDLYFPLKGDVVSRGSSGKDVNSIWMSRVIEWTYDS-NH2 [AFF7009]", "values": [{"measurement": "amount of BMP-2 retained on collagen with increasing IFBM concentration", "setting": "[1]", "result": "leads to a larger amount of BMP-2 that is retained on the collagen"}]}
{"substance": "SSFEPLRFPLKGVPVSRGSSGKDVNSIWMSRVIEWTYDS-NH2 [AFF7005]", "values": [{"measurement": "amount of BMP-2 retained on collagen with increasing IFBM concentration", "setting": "[1]", "result": "leads to a larger amount of BMP-2 that is retained on the collagen"}]}
{"substance": "DVNSIWMSRVIEWTYDSGSSGKSRSSDSAFSSFSALEGSVVSR-NH2 [AFF7008]", "values": [{"measurement": "BMP retained on collagen sponge", "setting": "[1]", "result": "increase the amount of BMP on the sponge when compared to no IFBM, but to a lesser extent than AFF7010"}]}
{"substance": "SSSDKCHKHWYCYESKYGGSGSSGK [AFF6007]", "values": [{"measurement": "binding to titanium", "setting": "[2]", "result": "bind to titanium"}, {"measurement": "EC50", "setting": "[2]", "result": 350, "unit": "nM"}]}
{"substance": "SSSDKSHKHWYSYESKYGGSGSSGK [AFF6010]", "values": [{"measurement": "decrease of affinity for titanium on elimination of the cysteine residues of AFF6007", "setting": "[2]; AFF6010 versus AFF6007", "result": "about 10 fold"}, {"measurement": "binding to titanium", "setting": "[2]", "result": "bind to titanium"}, {"measurement": "EC50", "setting": "[2]", "result": 3000, "unit": "nM"}]}
{"substance": "SSDWGVVASAWDAFEALDASR [compound 2011]", "values": [{"measurement": "binding to BMP-2", "setting": "[3]", "result": "bound"}, {"measurement": "binding to BMP-4", "setting": "[4]", "result": "bound"}, {"measurement": "binding to BMP-7", "setting": "[5]", "result": "bound"}]}
{"substance": "SRGGEAAAGAWVSFSALESSR [compound 2007]", "values": [{"measurement": "binding to BMP-2", "setting": "[3]", "result": "bound"}, {"measurement": "binding to BMP-4", "setting": "[4]", "result": "bound"}, {"measurement": "binding to BMP-7", "setting": "[5]", "result": "bound"}]}
{"substance": "DVNSIWMSRVIEWTYDSGSSGKSSFEPLRFPLKGVPVSR-NH2 [AFF7006]", "values": [{"measurement": "amount of BMP-2 retained on collagen with increasing IFBM concentration", "setting": "[1]", "result": "leads to a larger amount of BMP-2 that is retained on the collagen"}]}
{"substance": "DVNSIWMSRVIEWTYDSGSSGKSSDWGVVASAWDAFEALDASR-NH2 [AFF7017]", "values": [{"measurement": "BMP retained on collagen sponge", "setting": "[1]", "result": "increase the amount of BMP on the sponge when compared to no IFBM, but to a lesser extent than AFF7010"}]}
